From US10501479B2, “Benzenesulfonyl-asymmetric ureas and medical uses thereof” (HELSINN HEALTHCARE SA, priority 2016, dated 2019)
Values joined by “and” are separate entries in the source; they are usually repeats but may differ in a detail not shown here. Equal values may be shown once.

Columns and labels:
[1] = Metabolic stability in mouse liver microsomes; assay type: in vitro ADME
Method in brief: (§1)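 Microsomes + compound, 100 mM K phosphate pH 7.4, 37 °C; 5 min preincubation, NADPH regenerating system added to start. Aliquots at 0/10/30/90 min into cold quench, spun 5000×g, supernatant diluted, LC-MS/MS.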

[2] = biological target: T1, GHSR-1a (HEK293/GHSR1a cell line) (Homo sapiens, UniProt Q92847); experiment: Ghrelin antagonist potency (IC50) with calcium FLIPR assay, ghrelin 10 nM; assay type: cell-based; conditions: ghrelin antagonist potency, read-out: IC50 (Activity)
T1 construct: expressed in transfected cells; host or cells: HEK293/GHSR1a cell line
T1 sequence (Q92847 whole entry): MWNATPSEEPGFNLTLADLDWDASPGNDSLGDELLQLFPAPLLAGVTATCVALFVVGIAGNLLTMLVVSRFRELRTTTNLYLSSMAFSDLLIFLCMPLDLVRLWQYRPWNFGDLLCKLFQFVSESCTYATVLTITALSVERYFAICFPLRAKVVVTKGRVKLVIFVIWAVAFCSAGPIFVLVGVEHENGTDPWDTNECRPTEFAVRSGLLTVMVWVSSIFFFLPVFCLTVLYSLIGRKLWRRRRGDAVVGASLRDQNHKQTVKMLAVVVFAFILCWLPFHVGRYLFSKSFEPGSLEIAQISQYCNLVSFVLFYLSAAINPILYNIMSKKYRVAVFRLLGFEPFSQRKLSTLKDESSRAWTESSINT
Method in brief: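 Fluorescence read-out of intracellular calcium over 2 min. Agonist EC50 came from compound added alone at t=20 sec. Antagonist IC50 came from the reduction of the response to 10 nM ghrelin co-added with compound at t=20 sec. Both were fitted from dose-response data.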

[3] = Metabolic stability in human liver microsomes; assay type: in vitro ADME
Method in brief: as §1

[4] = biological target: T2, recombinant human ghrelin receptor (HEK293/GRLN) (Homo sapiens, UniProt Q92847); experiment: Ghrelin inverse agonist potency (EC50) with IP-1 (IP-One HTRF) assay; assay type: cell-based; conditions: inverse agonist potency, IP-1 assay; read-out: EC50 (Activity)
T2 construct: expressed in transfected cells
T2 sequence (Q92847 whole entry): as above
Method in brief: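 IP-1 accumulation was measured by HTRF (IP1-d2/Tb-cryptate, 620/665 nm read after 1 hour at room temperature) following 1 hour of compound treatment at 37° C. Cells were HEK293 stably expressing human ghrelin receptor, plated a day earlier on Matrigel. Inverse agonist potency was reported as EC50.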

[5] = Plasma protein binding (PPB), human; assay type: in vitro ADME; conditions: read-out: PPB (H)
[6] = Metabolic stability in dog liver microsomes; assay type: in vitro ADME
Method in brief: as §1

[7] = Metabolic stability in rat liver microsomes; assay type: in vitro ADME
Method in brief: as §1

[8] = Plasma protein binding (PPB), mouse; assay type: in vitro ADME
[9] = Animal PK study in mouse via i.v., p.o. and s.c. administration; assay type: in vivo; conditions: for PK CLiv / PK Vdiv / PK t1/2iv: i.v.; for PK CLpo / PK Vdpo / PK t1/2po: p.o.
Method in brief: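 Plasma drug levels were measured by LC-MS/MS after acetonitrile precipitation, with blood drawn up to 24 h post-dose (from 0.083 h i.v./s.c., 0.25 h oral) in mice or rats. Animals received one dose by gavage in DMSO/methylcellulose, or by tail-vein or subcutaneous injection in DMSO/HP-β-cyclodextrin.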

male C57BL/6J mice = experiment: Food intake test in mouse (GHSR1a inverse agonists), cumulative food intake at 1, 2, 4, 8 and 24 hrs; assay type: in vivo
Procedure: Evaluation of Inverse Agonist on Food Intake Test in Mouse:
Male C57BL/6J mice, 18-22 g body weight, were fasted overnight (16 h before compound administration) and placed in a regular light dark cycle (6:00-18:00 light/18:00-6:00 dark). After 1 wk acclimation, animals were sorted into two groups (n=6 each, 2 per cage) based on body weight. Animals in group one were be treated with vehicle and animals in group 2 were treated with the test agent (n=6 for each group). The cumulative food intake was evaluated at 1, 2, 4, 8 and 24 hrs after drug or vehicle treatment. Food intake was measured by subtracting uneaten food from the initial premeasured food.
Food Intake Study—Evaluation of GHSR1a inverse agonists on Food Intake Test in Mouse:
Twelve male C57BL/6J mice, weighing 18-22 g each, were fasted overnight (16 h before compound administration) and placed in a regular light dark cycle (6:00-18:00 light/18:00-6:00 dark). After 1 week acclimation, animals were sorted into two groups (n=6 each, 2 per cage) based on body weight. Animals in group one were treated with carrier minus the test compound. (control group) and animals in group 2 were treated with carrier with the test compound (experimental group). The cumulative food intake was evaluated at 1, 2, 4, 8 and 24 hrs after experimental or control treatment. Food intake was measured by subtracting uneaten food from the initial premeasured food.

[10] = Plasma protein binding (PPB), dog; assay type: in vitro ADME; conditions: read-out: PPB (D) (converted)
[11] = Plasma protein binding (PPB), rat; assay type: in vitro ADME; conditions: read-out: PPB (R) (converted)
hERG = hERG (Homo sapiens, UniProt Q12809); experiment: hERG inhibition
Sequence of hERG (Q12809 whole entry): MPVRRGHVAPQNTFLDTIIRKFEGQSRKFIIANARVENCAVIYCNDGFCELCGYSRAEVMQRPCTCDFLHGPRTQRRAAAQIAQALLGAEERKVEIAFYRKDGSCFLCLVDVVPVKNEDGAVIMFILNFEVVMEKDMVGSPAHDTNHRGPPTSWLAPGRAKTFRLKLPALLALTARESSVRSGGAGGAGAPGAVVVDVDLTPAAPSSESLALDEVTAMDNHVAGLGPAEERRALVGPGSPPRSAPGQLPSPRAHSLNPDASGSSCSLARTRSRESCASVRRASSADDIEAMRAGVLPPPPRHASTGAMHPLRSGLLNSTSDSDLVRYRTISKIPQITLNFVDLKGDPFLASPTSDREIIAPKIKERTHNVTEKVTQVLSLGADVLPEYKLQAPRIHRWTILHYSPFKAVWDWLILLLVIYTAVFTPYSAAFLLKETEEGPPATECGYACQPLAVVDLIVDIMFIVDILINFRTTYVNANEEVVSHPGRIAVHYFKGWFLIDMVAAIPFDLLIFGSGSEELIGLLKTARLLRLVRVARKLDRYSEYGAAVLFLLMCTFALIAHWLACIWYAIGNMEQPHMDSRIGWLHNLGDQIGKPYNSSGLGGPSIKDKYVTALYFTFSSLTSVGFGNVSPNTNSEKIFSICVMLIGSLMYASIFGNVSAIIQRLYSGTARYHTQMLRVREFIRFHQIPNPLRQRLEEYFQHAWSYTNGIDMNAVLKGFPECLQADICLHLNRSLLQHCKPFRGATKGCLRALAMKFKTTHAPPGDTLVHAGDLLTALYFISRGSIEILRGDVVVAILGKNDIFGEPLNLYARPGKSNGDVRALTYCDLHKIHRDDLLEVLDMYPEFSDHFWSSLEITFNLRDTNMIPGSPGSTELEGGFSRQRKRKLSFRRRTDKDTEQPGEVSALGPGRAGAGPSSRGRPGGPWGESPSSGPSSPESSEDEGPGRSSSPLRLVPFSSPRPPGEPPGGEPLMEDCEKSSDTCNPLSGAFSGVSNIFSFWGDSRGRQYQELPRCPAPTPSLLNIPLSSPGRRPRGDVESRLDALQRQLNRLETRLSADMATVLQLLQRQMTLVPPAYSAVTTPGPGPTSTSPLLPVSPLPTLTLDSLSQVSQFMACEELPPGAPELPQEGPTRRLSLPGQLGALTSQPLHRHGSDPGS

Compound | Metabolic Stability Study M = mouse [1] | IC50 [2] [nM] | Metabolic Stability Study H = human [3] | EC50 [4] [nM] | fraction unbound [5] | Metabolic Stability Study D = dog [6] | Metabolic Stability Study R = rat [7] | fraction unbound [8] | PK F [9] [%] | PK CLiv [9] [mL/min/kg] | PK Vdiv [9] [L/kg] | PK t1/2iv [9] [h] | PK CLpo [9] [mL/min/kg] | PK Vdpo [9] [L/kg] | PK t1/2po [9] [h] | Food Intake Study (male C57BL/6J mice; 5 mg/kg sc fasted mice) | Food Intake Study (male C57BL/6J mice; 30 mg/kg po fasted mice) | fraction unbound [10] | fraction unbound [11] | hERG inh (hERG) [µM]
CNC(C)(C)Cc1ccc(NS(=O)(=O)c2ccc(NC(=O)N[C@@H](C)c3ccc(-c4cnccn4)c(Cl)c3Cl)cc2)cc1 [H0941, (S)-4-(3-(1-(2,3-dichloro-4-(pyrazin-2-yl)phenyl)ethyl)ureido)-N-(4-(2-methyl-2-(methylamino)propyl)phenyl) benzenesulfonamide] | 66.2 µL/min/mg | 7.7 | 47.7 µL/min/mg | 2.8 | 0.0002 | 48.2 µL/min/mg | 36.2 µL/min/mg | 0.0005 |  |  |  |  |  |  |  |  |  |  |  | 
C[C@H](NC(=O)Nc1ccc(S(=O)(=O)Nc2ccc(CC(C)(C)N(C)C)cc2)cc1)c1cccc(Cl)c1Cl [H0967, (S)-4-(3-(1-(2,3-dichlorophenyl)ethyl)ureido)-N-(4-(2-(dimethylamino)-2-methylpropyl)phenyl) benzenesulfonamide] | 58 µL/min/mg | 16 | 38.2 µL/min/mg | 4.7 |  |  |  |  | 0.2 | 39 | 8.62 | 2.56 | 11620 | 2326.2 | 2.31 | 30 mg/kg po fasted - inh 5 mg/kg sc fasted - inh | 30 mg/kg po fasted - inh 5 mg/kg sc fasted - inh |  |  | 
CC(C)(N)Cc1ccc(NS(=O)(=O)c2ccc(NC(=O)NCc3cccc(Cl)c3Cl)cc2)cc1 [H0968, N-(4-(2-amino-2-methylpropyl)phenyl)-4-(3-(2,3-dichlorobenzyl)ureido) benzenesulfonamide] | 27.4 µL/min/mg | 44 | 32.5 µL/min/mg | 5.7 |  |  |  |  |  |  |  |  |  |  |  |  | 30 mg/kg po fasted - inh |  |  | 
C[C@H](NC(=O)Nc1ccc(S(=O)(=O)Cc2ccc(CC(C)(C)N)cc2)cc1)c1cccc(Cl)c1Cl [H0969, (S)-1-(4-((4-(2-amino-2-methylpropyl)benzyl)sulfonyl)phenyl)-3-(1-(2,3-dichlorophenyl)ethyl)urea] | 74.4 µL/min/mg | 53 | 19.5 µL/min/mg | 18.9 |  |  |  |  | 1.3 | 7.67 | 1.97 | 2.96 | 450.2 | 168.2 | 4.32 |  | 30 mg/kg po fasted - inh |  |  | 
C[C@H](NC(=O)Nc1ccc(S(=O)(=O)Cc2ccc(CO)cc2)cc1)c1cccc(Cl)c1Cl [H1060, (S)-1-(1-(2,3-dichlorophenyl)ethyl)-3-(4-((4-(hydroxymethyl)benzyl)sulfonyl)phenyl)urea] | 108.7 µL/min/mg | 280 | 40 µL/min/mg | 40.8 | 0.0013 |  |  | 0.0019 | 18.8 | 68.8 | 8.25 | 1.37 | 368 | 22.4 | 0.7 |  |  | 0.0012 | 0.0018 | 
C[C@H](NC(=O)Nc1ccc(S(=O)(=O)Nc2ccc(CO)cc2)cc1)c1cccc(Cl)c1Cl [H1062, (S)-4-(3-(1-(2,3-dichlorophenyl)ethyl)ureido)-N-(4-(hydroxymethyl)phenyl) benzenesulfonamide] | 67.2 µL/min/mg | 222 | 32.4 µL/min/mg | 58 | 0.0012 |  |  | 0.0019 |  |  |  |  |  |  |  |  |  | 0.0017 | 0.0012 | 
C[C@H](NC(=O)Nc1ccc(S(=O)(=O)Cc2ccc3c(c2)CCN(C)C3)cc1)c1cccc(Cl)c1Cl [H1071, (S)-1-(1-(2,3-dichlorophenyl)ethyl)-3-(4-(((2-methyl-1,2,3,4-tetrahydroisoquinolin-6-yl)methyl)sulfonyl)phenyl)urea] | 80.7 µL/min/mg and 152.5 µL/min/mg | 5 |  | 1.7 | 0.0089 | 172.6 µL/min/mg and 160.7 µL/min/mg | 274 µL/min/mg and 188 µL/min/mg | 0.0098 | 19.9 | 28.5 | 2.83 | 1.15 | 138 | 21.1 | 1.77 |  |  | 0.0082 | 0.0087 | 
CC(c1ccc2c(c1)CCNC2)S(=O)(=O)c1ccc(NC(=O)N[C@@H](C)c2cccc(Cl)c2Cl)cc1.Cl (stereo partly drawn) [H1080, 1-((S)-1-(2,3-dichlorophenyl)ethyl)-3-(4-((1-(1,2,3,4-tetrahydroisoquinolin-6-yl)ethyl)sulfonyl)phenyl)urea] | H < 10 M < 10 R = not reported D = not reported μL/min/mg | 22.6 | H < 10 M < 10 R = not reported D = not reported μL/min/mg | 11.1 |  |  |  |  |  |  |  |  |  |  |  |  |  |  |  | 3.57
C[C@H](NC(=O)Nc1ccc(S(=O)(=O)Cc2ccc3c(c2)CNC3)cc1)c1ccccc1 [H1215, (S)-1-(4-((isoindolin-5-ylmethyl)sulfonyl)phenyl)-3-(1-phenylethyl)urea] | 13.7 µL/min/mg | 12.4 | 21 µL/min/mg | 4.6 | 0.097 | 16.6 µL/min/mg | 18.5 µL/min/mg | 0.093 |  |  |  |  |  |  |  |  |  |  | 0.065 | 
